Data as given in patent US8829029B2, “Dual modulators of 5HT2A and D3 receptors” (Hoffmann-La Roche Inc., priority 2008, dated 2014).

Tests used:
[1] = molecular target: human 5-HT2A serotonin receptor (Homo sapiens (Human), UniProt P28223); assay: Radioligand binding ([3H]-ketanserin) to cloned human 5-HT2A receptor expressed in HEK-293 EBNA cells; settings: membranes of transfected HEK-293 EBNA cells, 1.1 nM [3H]-ketanserin, 1 h at RT
Description: The ability of the compounds to bind to the 5-HT2A, D3 and D2 receptors was determined using radioligand binding to cloned receptors selectively expressed in HEK-293 EBNA cells.
(§1) HEK-293 EBNA cells were transiently transfected with expression plasmids encoding for the human D2 or D3 dopamine- or for the human 5-HT2A serotonin receptor, respectively. The cells were harvested 48 h post-transfection, washed three times with cold PBS and stored at −80° C. prior to use. The pellet was suspended in cold 50 mM Tris-HCl buffer containing 10 mM EDTA (pH 7.4) and homogenized with a Polytron (Kinematica AG, Basel, Switzerland) for 20-30 sec at 12,000 rpm. After centrifugation at 48,000×g for 30 min at 4° C., the pellet was resuspended in cold 10 mM Tris-HCl buffer containing 0.1 mM EDTA (pH 7.4), homogenized, and centrifuged as above. This pellet was further resuspended in a smaller volume of ice cold 10 mM Tris-HCl buffer containing 0.1 mM EDTA (pH 7.4) and homogenized with a Polytron for 20-30 sec at 12,000 rpm. The protein content of this homogenate was determined with the Bio-Rad (Bradford) Protein Assay (Biorad Laboratories GmbH, München, Germany) according to the instructions of the manufacturer using gamma globulin as the standard. This homogenate was stored at −80° C. in aliquots and thawed immediately prior to use.
Aliquots of membrane preparations were thawed at RT, resuspended in assay buffer (D2, D3: 50 mM Tris-HCl, 120 mM NaCl, 5 mM MgCl2, 1 mM EDTA, 5 mM KCl, 1.5 mM CaCl2, pH=7.4; 5-HT2A: 50 mM Tris-HCl, 10 mM MgCl2, 1 mM EGTA, pH=7.4), homogenized with a Polytron for 20-30 sec at 12,000 rpm and adjusted to a final concentration of approximately 7.5 μg protein/well (D2, D3) and 15 μg protein/well (5-HT2A), respectively.
(§2) The binding affinity (Ki) of the compounds was determined using radioligand binding. Membranes were incubated in a total volume of 200 μl with a fixed concentration of radioligand (final concentration approximately 0.7 nM [^3H]-spiperone for D2, 0.5 nM [^3H]-spiperone for D3, and 1.1 nM [^3H]-ketanserin for 5-HT2A) and ten concentrations of test compound in ranging between 10 μM-0.1 nM for 1 h at RT. At the end of the incubation, the reaction mixtures were filtered on to unifilter 96-well white microplates with bonded GF/C filters (Packard BioScience, Zürich, Switzerland; preincubated for 1 h in 0.1% polyethylenimine (PEI) in assay buffer) with a Filtermate 196 harvester (Packard BioScience) and washed 3 times with cold assay buffer. The nonspecific binding was determined with equally composed reaction mixtures in the presence of 10 μM unlabelled spiperone. Per well 45 μl of Microscint 40 (Perkin Elmer, Schwerzenbach, Switzerland) was added, plates for sealed, shaken for 20 min and counted for 3 min on a Topcount Microplate Scintillation Counter (Canberra Packard SA, Zürich, Switzerland) with quenching correction.
(§3) The CPM value for each duplicate of a concentration of competing compound was averaged (y1), then the % specific binding was calculated according to the equation (((y1−non-specific)/(total binding−non-specific))×100). Graphs were plotted with the % specific binding using XLfit, a curve fitting program that iteratively plots the data using Levenburg Marquardt algorithm. The single site competition analysis equation used was y=A+((B−A)/(1+((x/C)^D))), where y is the % specific binding, A is the minimum y, B is the maximum y, C is the IC50, x is the log10 of the concentration of the competing compound and D is the slope of the curve (the Hill Coefficient). From these curves the IC50 (inhibition concentration at which 50% specific binding of the radioligand was displaced) and Hill coefficient were determined. The affinity constant (Ki) was calculated using the Cheng-Prusoff equation Ki=(IC50/1+([L]/Kd), where [L] is the concentration of radioligand and Kd is the dissociation constant of the radioligand at the receptor as determined by the saturation isotherm.

[2] = molecular target: human D3 dopamine receptor (Homo sapiens (Human), UniProt P35462); assay: Radioligand binding ([3H]-spiperone) to cloned human D3 receptor expressed in HEK-293 EBNA cells; settings: membranes of transfected HEK-293 EBNA cells, 0.5 nM [3H]-spiperone, 1 h at RT
human D3 dopamine receptor, sequence (P35462 whole entry): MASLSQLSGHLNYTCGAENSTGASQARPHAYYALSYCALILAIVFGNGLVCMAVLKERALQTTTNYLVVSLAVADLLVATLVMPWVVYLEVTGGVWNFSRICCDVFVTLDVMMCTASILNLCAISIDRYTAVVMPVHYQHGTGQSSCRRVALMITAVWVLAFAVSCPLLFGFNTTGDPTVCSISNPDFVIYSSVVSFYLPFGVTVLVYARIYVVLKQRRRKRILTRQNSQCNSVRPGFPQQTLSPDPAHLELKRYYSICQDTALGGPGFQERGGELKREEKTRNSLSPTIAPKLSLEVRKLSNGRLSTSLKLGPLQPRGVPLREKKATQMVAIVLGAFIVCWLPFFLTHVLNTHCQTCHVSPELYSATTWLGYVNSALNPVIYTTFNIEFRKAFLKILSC
Description: as §1, with “The pellet was suspended in cold 50 mM Tris-HCl buffer containing 10 mM EDTA (pH 7.4) and homogenized with a Polytron (Kinematica AG, Basel, Switzerland) for 20-30 sec at 12,000 rpm.” left out, “This pellet was further resuspended in a smaller volume of ice cold 10 mM Tris-HCl buffer containing 0.1 mM EDTA (pH 7.4) and homogenized with a Polytron for 20-30 sec at 12,000 rpm.” left out
as §2, §3

With `O=C(N[C@H]1CC[C@H](CCN2CCC(c3noc4cc(F)ccc34)CC2)CC1)c1cnc(N2CCOCC2)nc1` [Example 4D, 2-Morpholin-4-yl-pyrimidine-5-carboxylic acid trans (4-{2-[4-(6-fluoro-benzo[d]isoxazol-3-yl)-piperidin-1-yl]-ethyl}-cyclohexyl)-amide] the Ki [1] was 2.45 nM and the Ki [2] was 15.3 nM.
In the case of `O=C(N[C@H]1CC[C@H](CCN2CCC(c3noc4cc(F)ccc34)CC2)CC1)c1ccc(N2CCOCC2)c(F)c1` [Example 5, 3-Fluoro-N-trans (4-{2-[4-(6-fluoro-benzo[d]isoxazol-3-yl)-piperidin-1-yl]-ethyl}-cyclohexyl)-4-morpholin-4-yl-benzamide], the Ki [1] is reported as 17.5 nM and the Ki [2] is reported as 45.3 nM.
`CN(C)c1ccc(C(=O)N[C@H]2CC[C@H](CCN3CCC(c4noc5cc(F)ccc45)CC3)CC2)cc1` [Example 6, 4-Dimethylamino-N-trans (4-{2-[4-(6-fluoro-benzo[d]isoxazol-3-yl)-piperidin-1-yl]-ethyl}-cyclohexyl)-benzamide] was tested, and the Ki [1] was 11.4 nM and the Ki [2] was 11.5 nM.
With `O=C(Cc1ccc2c(c1)OCO2)N[C@H]1CC[C@H](CCN2CCC(c3noc4cc(F)ccc34)CC2)CC1` [Example 7, 2-Benzo[1,3]dioxo1-5-yl-N-trans (4-{2-[4-(6-fluoro-benzo[d]isoxazol-3-yl)-piperidin-1-yl]-ethyl}-cyclohexyl)-acetamide] the Ki [1] was 2.09 nM and the Ki [2] was 4.02 nM.
With `COc1ccc(C(=O)N[C@H]2CC[C@H](CCN3CCC(c4noc5cc(F)ccc45)CC3)CC2)cc1` [Example 8, N-trans-(4-{2-[4-(6-Fluoro-benzo[d]isoxazol-3-yl)-piperidin-1-yl]-ethyl}-cyclohexyl)-4-methoxy-benzamide] the Ki [1] was 3.65 nM and the Ki [2] was 4.53 nM.
`CC(C)(C)Oc1ccc(C(=O)N[C@H]2CC[C@H](CCN3CCC(c4noc5cc(F)ccc45)CC3)CC2)cc1` [Example 9, 4-tert-Butoxy-N-trans (4-{2-[4-(6-fluoro-benzo[d]isoxazol-3-yl)-piperidin-1-yl]-ethyl}-cyclohexyl)-benzamide] showed a Ki [1] of 1.72 nM and a Ki [2] of 3.42 nM.
`O=C(N[C@H]1CC[C@H](CCN2CCC(c3noc4cc(F)ccc34)CC2)CC1)c1ccc(Cl)cc1` [Example 10, 4-Chloro-N-trans (4-{2-[4-(6-fluoro-benzo[d]isoxazol-3-yl)-piperidin-1-yl]-ethyl}-cyclohexyl)-benzamide] gave a Ki [1] of 2.67 nM and a Ki [2] of 3.5 nM.
`O=C(N[C@H]1CC[C@H](CCN2CCC(c3noc4cc(F)ccc34)CC2)CC1)c1ccc(N2CCS(=O)(=O)CC2)cc1` [Example 11, 4-(1,1-Dioxo-1,6-thiomorpholin-4-yl)-N-trans (4-{2-[4-(6-fluoro-benzo[d]isoxazol-3-yl)-piperidin-1-yl]-ethyl}-cyclohexyl)-benzamide] was tested, and the Ki [1] was 2.48 nM and the Ki [2] was 4.67 nM.
With `COc1cc(C(=O)N[C@H]2CC[C@H](CCN3CCC(c4noc5cc(F)ccc45)CC3)CC2)ccn1` [Example 13, N-trans (4-{2-[4-(6-Fluoro-benzo[d]isoxazol-3-yl)-piperidin-1-yl]-ethyl}-cyclohexyl)-2-methoxy-isonicotinamide] the Ki [1] was 1.62 nM and the Ki [2] was 3.74 nM.
Molecule `O=C(N[C@H]1CC[C@H](CCN2CCC(c3noc4cc(F)ccc34)CC2)CC1)c1ccc(N2CCCCC2)cc1` [Example 14, N-trans (4-{2-[4-(6-Fluoro-benzo[d]isoxazol-3-yl)-piperidin-1-yl]-ethyl}-cyclohexyl)-4-piperidin-1-yl-benzamide] has a Ki [1] of 2.6 nM and a Ki [2] of 8.69 nM.
`O=C(N[C@H]1CC[C@H](CCN2CCC(c3noc4cc(F)ccc34)CC2)CC1)C1COc2ccccc2O1` (stereo partly drawn) [Example 15, 2,3-Dihydro-benzo[1,4]dioxine-2-carboxylic acid trans (4-{2-[4-(6-fluoro-benzo[d]isoxazol-3-yl)-piperidin-1-yl]-ethyl}-cyclohexyl)-amide] was tested, and the Ki [1] was 2.57 nM and the Ki [2] was 12.7 nM.
`Cc1ccn(CC(=O)N[C@H]2CC[C@H](CCN3CCC(c4noc5cc(F)ccc45)CC3)CC2)n1` [Example 16, N-trans (4-{2-[4-(6-Fluoro-benzo[d]isoxazol-3-yl)-piperidin-1-yl]-ethyl}-cyclohexyl)-2-(3-methyl-pyrazol-1-yl)-acetamide] showed a Ki [1] of 2.8 nM and a Ki [2] of 27.6 nM.
For `O=C(N[C@H]1CC[C@H](CCN2CCC(c3noc4cc(F)ccc34)CC2)CC1)c1ccc(-n2cccc2)cc1` [Example 17, N-trans(4-{2-[4-(6-Fluoro-benzo[d]isoxazol-3-yl)-piperidin-1-yl]-ethyl}-cyclohexyl)-4-pyrrol-1-yl-benzamide], the Ki [1] was 2.45 nM and the Ki [2] was 2.61 nM.
For `O=C(N[C@H]1CC[C@H](CCN2CCC(c3noc4cc(F)ccc34)CC2)CC1)C1(O)CC1` [Example 18, 1-Hydroxy-cyclopropanecarboxylic acid trans (4-{2-[4-(6-fluoro-benzo[d]isoxazol-3-yl)-piperidin-1-yl]-ethyl}-cyclohexyl)-amide], the Ki [1] was 1.44 nM and the Ki [2] was 5.92 nM.
In the case of `O=C(N[C@H]1CC[C@H](CCN2CCC(c3noc4cc(F)ccc34)CC2)CC1)C1(C(F)(F)F)CCC1` [Example 19, 1-Trifluoromethyl-cyclobutanecarboxylic acid trans (4-{2-[4-(6-fluoro-benzo[d]isoxazol-3-yl)-piperidin-1-yl]-ethyl}-cyclohexyl)-amide], the Ki [1] is reported as 2.26 nM and the Ki [2] is reported as 7.74 nM.
`O=C(CC(F)(F)F)N[C@H]1CC[C@H](CCN2CCC(c3noc4cc(F)ccc34)CC2)CC1` [Example 20, 3,3,3-Trifluoro-N-trans (4-{2-[4-(6-fluoro-benzo[d]isoxazol-3-yl)-piperidin-1-yl]-ethyl}-cyclohexyl)-propionamide] showed a Ki [1] of 2.78 nM and a Ki [2] of 5.19 nM.
With `COc1cc(CC(=O)N[C@H]2CC[C@H](CCN3CCC(c4noc5cc(F)ccc45)CC3)CC2)cc(OC)c1` [Example 21, 2-(3,5-Dimethoxy-phenyl)-N-trans (4-{2-[4-(6-fluoro-benzo[d]isoxazol-3-yl)-piperidin-1-yl]-ethyl}-cyclohexyl)-acetamide] the Ki [1] was 2.95 nM and the Ki [2] was 8.77 nM.
For `CC1CN(c2ccc(C(=O)N[C@H]3CC[C@H](CCN4CCC(c5noc6cc(F)ccc56)CC4)CC3)cc2)CC(C)O1` (stereo partly drawn) [Example 22, 4-(2,6-Dimethyl-morpholin-4-yl)-N-trans (4-{2-[4-(6-fluoro-benzo[d]isoxazol-3-yl)-piperidin-1-yl]-ethyl}-cyclohexyl)-benzamide], the Ki [1] was 21.2 nM and the Ki [2] was 137 nM.
`CC(=O)N[C@H]1CC[C@H](CCN2CCC(c3noc4ccc(F)cc34)CC2)CC1` [Example 24, N-trans(4-{2-[4-(5-Fluoro-benzo[d]isoxazol-3-yl)-piperidin-1-yl]-ethyl}-cyclohexyl)-acetamide] gave a Ki [1] of 46.9 nM and a Ki [2] of 2.44 nM.
